Reference: patent US20250034186A1, “ANTIVIRAL COMPOUNDS” (priority 2020, published 2025)
Values after ≈ are worked out from the molar mass of the structure shown. Read-outs that look alike come from different tables or passages of the source.

What was measured:
[1] = MT-4 cytotoxicity assay; format: cell-based; conditions: human, MT-4 cells (uninfected), 4-5 days, read-out: CC50 MT4
Method: Cytotoxicity of the compound of Formula I and compounds 1, 2, and 6 was determined in uninfected cells using the cell viability reagent in a similar fashion as described before for other cell types (Cihlar et al., Antimicrob Agents Chemother. 2008, 52(2):655-65.). HEp-2 (1.5×10^3 cells/well) and MT-4 (2×10^3 cells/well) cells were plated in 384-well plates and incubated with the appropriate medium containing 3-fold serially diluted compound ranging from 15 nM to 100,000 nM. Cells were cultured for 4-5 days at 37° C. Following the incubation, the cells were allowed to equilibrate to 25° C., and cell viability was determined by adding Cell-Titer Glo viability reagent. The mixture was incubated for 10 min, and the luminescence signal was quantified using an Envision plate reader. Untreated cell and cells treated at 2 μM puromycin (Sigma, St. Louis, MO) serve as 100% and 0% cell viability control, respectively.

[2] = Huh-7 cytotoxicity assay; format: cell-based; conditions: human, Huh7 cells
Method: Compounds were tested in a high-throughput 384-well assay format for cytotoxicity in Huh7 cells (Hepatocarcinoma cell line). Cells were diluted in media (DMEM (15-018-CM), 10% FBS, 1% NEAA, 1% PSG) to 16.6K cells/mL and plated at 90 uL/well into 384 well poly-D-lysine coated assay plates and placed in an incubator at 37° C. and 5% CO2. Compounds were serially diluted (1:3) in 100% DMSO in 384-well plates in quadruplicate. DMSO and 2 mM Puromycin were included as negative and positive controls respectively. 24 hours after cell plating, a 384 channel pipettor was used to transfer 0.4 uL from the compound plate to the assay plate. Assay plates were returned to the incubator. After 5 days, assay plates were washed with 80 uL/well of PBS before addition of 20 μL of Cell Titer Glo. Assay plates were read on the Envision plate reader. […] CC50 values were calculated in Accord (on-line tool) using a one-site dose-response model to generate sigmoidal curve fits.

[3] = Stability assay in cynomolgus monkey hepatic S9 fractions; format: in vitro ADME; conditions: 37° C., NADPH and UDPGA, read-out: Cyno HepS9 t1/2
Method: For S9 stability, the compounds were incubated at 2 μM in cynomolgus monkey or human hepatic S9 fractions for up to 90 min at 37° C. in the presence of NADPH and UDPGA (Phase I and Phase II cofactor, Sigma-Aldrich). At desired time points following compound addition, samples were quenched with 9 volumes of an aqueous solution containing internal standard, 50% acetonitrile and 25% methanol. Sample plates were centrifuged at 3000 g for 30 min, and 10 μL of the resulting solution was analyzed by LC-MS/MS. Data (analyte to internal standard peak area ratio) were plotted on a semi log scale and fitted using an exponential fit. The half-life (T1/2) was determined assuming first order kinetics.

[4] = PRPT cytotoxicity assay; format: cell-based; conditions: human, primary renal proximal tubule epithelial cells (PRPTEC); 5-day incubation
Method: The PRPT cytotoxicity assays on the compound of Formula I and compounds 1, 2 and 6 were conducted using the following protocol.
Cryopreserved human primary renal proximal tubule epithelial cells (PRPTEC), were obtained from LifeLine Cell Technology (Frederick, MD, Cat #FC-0013) and isolated from the tissue of human kidney. The cells were cultured with RenaLife completed medium (LifeLine, Frederick, MD, Cat #LL-0025) in T75 flask for 3 to 4 days from cryopreserved vial, before the cells were seeded to assay plates after 90% confluence. PRPTEC cells were plated at a density of 5×10^3 cells per well in collagen coated 96-well plate with a final volume of […] per well. On next day, the compound was added to cell plates directly using HP D300 Dispenser (Hewlett-Packard, Palo Alto, CA) with program starting at 200 fold lower than the compound stock concentration, and 1:3 fold dilution in duplicates with constant amount of DMSO equal to 0.5%. After 5-day incubation, culture medium was removed, cell viability was measured by addition of […] per well of CellTiter Glo viability reagent (Promega, Madison, WI, Cat #G7573) and the luminescence signal was quantified on a Luminescence plate reader (Perkin-Elmer, Waltham, MA).

[5] = Thermodynamic solubility assay; format: physicochemical; conditions: thermodynamic from solid, room temperature, four days
Method: Excess solid compound was used to saturate aqueous samples of the compounds. The tubes were placed on an agitator set at 1000 rpm and remained under constant agitation for four days. Following agitation, it was confirmed that excess solids were present in all tubes. The tubes were centrifuged at 10,000 rpm for 5 minutes to remove excess solids and the supernatant was transferred to a new vial. Concentration analysis was determined by UPLC and quantified against internal standards.

[6] = pH 7, aqueous buffer, phosphate buffered saline solution, read-out: pH 7 Solubility
[7] = simulated gastric fluid, 10 mM hydrochloric acid (pH 2.0), read-out: pH 2 Solubility

CCOC(=O)[C@H](C)NP(=O)(OC[C@@]1(C#N)O[C@@H](c2ccc3c(N)ncnn23)[C@H](O)[C@@H]1O)Oc1ccccc1 (some centres unmarked) [Compound 1, reference compound]
CC50 [1]: 52.4 µM | CC50 at 5 days [2]: > 44.4 µM

CCC(CC)COC(=O)[C@H](C)NP(=O)(OC[C@@]1(C#N)O[C@@H](c2ccc3c(N)ncnn23)[C@H](O)[C@@H]1O)Oc1ccccc1 (some centres unmarked) [Compound 2, reference compound]
CC50 [1]: > 43.7 µM | half-life at 2 μM [3]: 3 min | CC50 at 5 days [2]: > 44.4 µM | CC50 at 5 days [4]: 23.8 µM | solubility thermodynamic at 4 days [5, 6]: 18 µg/mL (≈ 0.0299 mM) | solubility thermodynamic at 4 days [5, 7]: 3720 µg/mL (≈ 6.17 mM)

CCC(CC)COC(=O)[C@H](C)N[P@](=O)(OC[C@@]1(C#N)O[C@@H](c2ccc3c(N)ncnn23)[C@H](O)[C@@H]1O)Oc1ccccc1 [Compound 6, 2-ethylbutyl ((S)-(((2R,3S,4R,5S)-5-(4-aminopyrrolo[2,1-f][1,2,4]triazin-7-yl)-2-cyano-3,4-dihydroxytetrahydrofuran-2-yl)methoxy)(phenoxy)phosphoryl)alaninate]
CC50 [1]: 38.8 µM | half-life at 2 μM [3]: 2 min | CC50 at 5 days [2]: 17.2 µM | CC50 at 5 days [4]: 42.3 µM | solubility thermodynamic at 4 days [5, 6]: 16 µg/mL (≈ 0.0266 mM) | solubility thermodynamic at 4 days [5, 7]: 3790 µg/mL (≈ 6.29 mM)

C[C@H](N[P@](=O)(OC[C@@]1(C#N)O[C@@H](c2ccc3c(N)ncnn23)[C@H](O)[C@@H]1O)Oc1ccccc1)C(=O)OC1CCCCC1 [Formula I, cyclohexyl ((S)-(((2R,3S,4R,5S)-5-(4-aminopyrrolo[2,1-f][1,2,4]triazin-7-yl)-2-cyano-3,4-dihydroxytetrahydrofuran-2-yl)methoxy)(phenoxy)phosphoryl)-L-alaninate]
CC50 [1]: 56.2 µM | half-life at 2 μM [3]: 26 min | CC50 at 5 days [2]: > 88.9 µM | CC50 at 5 days [4]: > 84.4 µM | solubility thermodynamic at 4 days [5, 6]: 131 µg/mL | solubility thermodynamic at 4 days [5, 7]: 4120 µg/mL
